Series [1] deals with T1, P. stipitis XR (xylose reductase, XYL1) (Scheffersomyces stipitis, UniProt P31867, K270R).
T1 construct: native full-length XYL1 from plasmid pY7, chromosomally integrated in S. cerevisiae TMB 3044 (gre3 deleted); crude cell extract
The experiment in a line: NAD(P)H absorbance at […] nm, initial rates fitted to compulsory-order ternary-complex equation. It is filed as biochemical. The note with it: crude extract, xylose co-substrate varied, pH 7.0 triethanolamine, 30°C; kinetic dissociation constant; read-out: KiA.

Series [2] has as its target T2, P. stipitis XR (xylose reductase, XYL1) (Scheffersomyces stipitis, UniProt P31867).
T2 construct: native full-length XYL1 from plasmid pY7, chromosomally integrated in S. cerevisiae TMB 3044 (gre3 deleted); crude cell extract
The description is as above. Type of series: biochemical. The note with it: crude extract, xylose co-substrate varied, pH 7.0 triethanolamine, 30°C; kinetic dissociation constant; read-out: KiA.

Series [3] has as its target T3, P. stipitis XR (xylose reductase, XYL1) (Scheffersomyces stipitis, UniProt P31867, K270M).
T3 construct: native full-length XYL1 from plasmid pY7, chromosomally integrated in S. cerevisiae TMB 3044 (gre3 deleted); crude cell extract
Described as above. Type of series: biochemical. The note with it: crude extract, xylose co-substrate varied, pH 7.0 triethanolamine, 30°C; kinetic dissociation constant; read-out: KiA.

Substrate in series [4]: NC(=O)C1=CN([C@@H]2O[C@H](COP(=O)(O)OP(=O)(O)OC[C@H]3O[C@@H](n4cnc5c(N)ncnc54)[C@H](O)[C@@H]3O)[C@@H](O)[C@H]2O)C=CC1
The series can be described thus: cells, lysate or membranes. It is filed as biochemical, Scheffersomyces stipitis. The note with it: crude extract, xylose co-substrate varied, pH 7.0 triethanolamine, 30°C, varied: cofactor.

Substrate in series [5]: NC(=O)C1=CN([C@@H]2O[C@H](COP(=O)(O)OP(=O)(O)OC[C@H]3O[C@@H](n4cnc5c(N)ncnc54)[C@H](OP(=O)(O)O)[C@@H]3O)[C@@H](O)[C@H]2O)C=CC1
The experiment in a line: cells, lysate or membranes. It is filed as biochemical, Scheffersomyces stipitis. The conditions noted are these: crude extract, xylose co-substrate varied, pH 7.0 triethanolamine, 30°C, varied: cofactor.

Turning to `NC(=O)C1=CN([C@@H]2O[C@H](COP(=O)(O)OP(=O)(O)OC[C@H]3O[C@@H](n4cnc5c(N)ncnc54)[C@H](OP(=O)(O)O)[C@@H]3O)[C@@H](O)[C@H]2O)C=CC1` [NADPH], the Kd was 22.9 ± 17.6 µM in series [1], 1.4 ± 1.2 µM in series [2] and 293 ± 169 µM in series [3].
On to `NC(=O)C1=CN([C@@H]2O[C@H](COP(=O)(O)OP(=O)(O)OC[C@H]3O[C@@H](n4cnc5c(N)ncnc54)[C@H](O)[C@@H]3O)[C@@H](O)[C@H]2O)C=CC1` [NADH], for which the Kd in series [1] was determined as 57.4 ± 34.9 µM; in series [2], 25.9 ± 11.7 µM.

B1: P. stipitis XR (xylose reductase, XYL1) (Scheffersomyces stipitis CBS 6054) (protein)
chain: MPSIKLNSGYDMPAVGFGCWKVDVDTCSEQIYRAIKTGYRLFDGAEDYANEKLVGAGVKKAIDEGIVKREDLFLTSKLWNNYHHPDNVEKALNRTLSDLQVDYVDLFLIHFPVTFKFVPLEEKYPPGFYCGKGDNFDYEDVPILETWKALEKLVKAGKIRSIGVSNFPGALLLDLLRGATIKPSVLQVEHHPYLQQPRLIEFAQSRGIAVTAYSSFGPQSFVELNQGRALNTSPLFENETIKAIAAKHGKSPAQVLLRWSSQRGIAIIPKSNTVPRLLENKDVNSFDLDEQDFADIAKLDINLRFNDPWDWDKIPIFV
notes: native full-length XYL1 from plasmid pY7, chromosomally integrated in S. cerevisiae TMB 3044 (gre3 deleted); crude cell extract
Consider B1, for which the Km (commonly the substrate concentration at which the rate is half of its maximum) in series [4] was determined as 28.7 ± 5.4 µM; in series [5] it was 1.0 ± 0.6 µM.

B2: P. stipitis XR (xylose reductase, XYL1) (Scheffersomyces stipitis CBS 6054; K270R) (protein)
chain: MPSIKLNSGYDMPAVGFGCWKVDVDTCSEQIYRAIKTGYRLFDGAEDYANEKLVGAGVKKAIDEGIVKREDLFLTSKLWNNYHHPDNVEKALNRTLSDLQVDYVDLFLIHFPVTFKFVPLEEKYPPGFYCGKGDNFDYEDVPILETWKALEKLVKAGKIRSIGVSNFPGALLLDLLRGATIKPSVLQVEHHPYLQQPRLIEFAQSRGIAVTAYSSFGPQSFVELNQGRALNTSPLFENETIKAIAAKHGKSPAQVLLRWSSQRGIAIIPRSNTVPRLLENKDVNSFDLDEQDFADIAKLDINLRFNDPWDWDKIPIFV
notes: as for B1
B2: the Km in series [4] is 62.8 ± 18.7 µM; in series [5] it was 25.8 ± 9.1 µM.

B3: P. stipitis XR (xylose reductase, XYL1) (Scheffersomyces stipitis CBS 6054; K270M) (protein)
chain: MPSIKLNSGYDMPAVGFGCWKVDVDTCSEQIYRAIKTGYRLFDGAEDYANEKLVGAGVKKAIDEGIVKREDLFLTSKLWNNYHHPDNVEKALNRTLSDLQVDYVDLFLIHFPVTFKFVPLEEKYPPGFYCGKGDNFDYEDVPILETWKALEKLVKAGKIRSIGVSNFPGALLLDLLRGATIKPSVLQVEHHPYLQQPRLIEFAQSRGIAVTAYSSFGPQSFVELNQGRALNTSPLFENETIKAIAAKHGKSPAQVLLRWSSQRGIAIIPMSNTVPRLLENKDVNSFDLDEQDFADIAKLDINLRFNDPWDWDKIPIFV
notes: as for B1
Turning to B3, in series [5], the Km turned out to be 290 ± 78.6 µM.

The values above are taken from publication PMC2688486, “Xylose reductase from Pichia stipitis with altered coenzyme preference improves ethanolic xylose fermentation by recombinant Saccharomyces cerevisiae” (Biotechnology for Biofuels, 2009).
